# Measured values from patent US20230085307A1, “PYRIDAZINONE COMPOUND AND HERBICIDE” (NISSAN CHEMICAL CORPORATION, priority 2019, published 2023).
# Assays:
# [1] = test system: barnyard grass; assay: Test Example 3: herbicidal effect by foliage application, Wagner pot (Table 18, symbol H); format: in vivo, barnyard grass (Echinochloa crus-galli)
# Procedure: [Test Example 3] Herbicidal Effect Test by Foliage Application After alluvial soil was placed into 1/10000 are of Wagner pot, water was poured and mixed to form a submerged condition having a water depth of 0.1 cm to 0.5 cm. Seeds of barnyard grass, Chinese sprangletop, rice flat sedge, and rice were sowed and the pot was placed in a greenhouse at 25° C. to 30° C. for growth of the plants. After 14-day growth of the plants, the emulsion agent of the compound of the present invention prepared according to Formulation Example 2 was diluted with water so as to achieve a predetermined herbicide amount, and the diluted emulsion agent was uniformly applied to a foliage part with a small-sized spray. Three weeks after the herbicide application, the effect of the herbicide on each plant was evaluated according to the criteria of Test Example 1.
# [2] = test system: Chinese sprangletop; assay: Test Example 3: herbicidal effect by foliage application, Wagner pot (Table 18, symbol D); format: in vivo, chinese sprangletop (Leptochloa chinensis)
# Outline: (§1)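 Plants were sown in alluvial soil held under 0.1–0.5 cm standing water and grown 14 days in a greenhouse at 25–30 °C. An emulsifiable formulation, water-diluted to the set dose, was then sprayed onto the foliage, and effects were scored three weeks later using previously defined criteria.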
# [3] = test system: velvetleaf; assay: Test Example 5: herbicidal effect by foliage application, plastic box (Table 20, symbol M); format: in vivo, velvetleaf (Abutilon theophrasti); conditions: foliage application, three weeks after application
# From the text: (§2) [Test Example 5] Herbicidal Effect Test by Foliage Application
# (§3) Sterilized diluvial soil was placed in a plastic box having a length of 21 cm, a width of 13 cm, and a depth of 7 cm. The seeds of each of southern crabgrass, green foxtail, barnyard grass, wild oat, blackgrass, Italian ryegrass, windgrass, velvetleaf, redroot pigweed, lambsquarters, chickweed, false cleavers, persian speedwell, corn, soybean, rice, wheat, beet, and rapeseed were sowed in a spot-like manner and covered with the soil having a thickness of about 1.5 cm. Thereafter, the plants were grown in a greenhouse at 25° C. to 30° C. After 14-day growth of the plants, the emulsion agent of the compound of the present invention prepared according to Formulation Example 2 was diluted with water so as to achieve a predetermined herbicide amount, and the diluted emulsion agent was uniformly applied to a foliage part with a small-sized spray. Three weeks after the herbicide application, the effect of the herbicide on each plant was evaluated according to the criteria of Test Example 1.
# [4] = test system: lambsquarters; assay: Test Example 5: herbicidal effect by foliage application, plastic box (Table 20, symbol O); format: in vivo, lambsquarters (Chenopodium album); conditions: foliage application, three weeks after application
# From the text: as §2, §3
# [5] = test system: wild oat; assay: Test Example 5: herbicidal effect by foliage application, plastic box (Table 20, symbol I); format: in vivo, wild oat (Avena fatua); conditions: foliage application, three weeks after application
# From the text: as §2, §3
# [6] = test system: Italian ryegrass; assay: Test Example 5: herbicidal effect by foliage application, plastic box (Table 20, symbol K); format: in vivo, Italian ryegrass (Lolium multiflorum); conditions: foliage application, three weeks after application
# From the text: as §2, §3
# [7] = test system: rice flat sedge; assay: Test Example 3: herbicidal effect by foliage application, Wagner pot (Table 18, symbol E); format: in vivo, rice flat sedge (Cyperus iria)
# Outline: as §1
# [8] = test system: barnyard grass; assay: Test Example 5: herbicidal effect by foliage application, plastic box (Table 20, symbol H); format: in vivo, barnyard grass (Echinochloa crus-galli); conditions: foliage application, three weeks after application
# From the text: as §2, §3
# [9] = test system: blackgrass; assay: Test Example 5: herbicidal effect by foliage application, plastic box (Table 20, symbol J); format: in vivo, blackgrass (Alopecurus myosuroides); conditions: foliage application, three weeks after application
# From the text: as §2, §3
# [10] = test system: southern crabgrass; assay: Test Example 5: herbicidal effect by foliage application, plastic box (Table 20, symbol F); format: in vivo, southern crabgrass (Digitaria ciliaris); conditions: foliage application, three weeks after application
# From the text: as §2, §3
# [11] = test system: persian speedwell; assay: Test Example 5: herbicidal effect by foliage application, plastic box (Table 20, symbol R); format: in vivo, Persian speedwell (Veronica persica); conditions: foliage application, three weeks after application
# From the text: as §2, §3
# [12] = test system: green foxtail; assay: Test Example 5: herbicidal effect by foliage application, plastic box (Table 20, symbol G); format: in vivo, green foxtail (Setaria viridis); conditions: foliage application, three weeks after application
# From the text: as §2, §3
# [13] = test system: windgrass; assay: Test Example 5: herbicidal effect by foliage application, plastic box (Table 20, symbol L); format: in vivo, windgrass (Apera spica-venti); conditions: foliage application, three weeks after application
# From the text: as §2, §3
SMILES,herbicidal effect on barnyard grass (H) ([1]; 320 g/ha),herbicidal effect on Chinese sprangletop (D) ([2]; 320 g/ha),herbicidal effect on velvetleaf (M) ([3]; 320 g/ha),herbicidal effect on lambsquarters (O) ([4]; 320 g/ha),herbicidal effect on wild oat (I) ([5]; 320 g/ha),herbicidal effect on Italian ryegrass (K) ([6]; 320 g/ha),herbicidal effect on rice flat sedge (E) ([7]; 320 g/ha),herbicidal effect on barnyard grass (H) ([8]; 320 g/ha),herbicidal effect on blackgrass (J) ([9]; 320 g/ha),herbicidal effect on southern crabgrass (F) ([10]; 320 g/ha),herbicidal effect on persian speedwell (R) ([11]; 320 g/ha),herbicidal effect on green foxtail (G) ([12]; 320 g/ha),herbicidal effect on windgrass (L) ([13]; 320 g/ha),further results
CCCC(=O)Oc1c(C)nn(C)c(=O)c1-c1c(-c2ccc(OC)c(OC)c2)sc2cc(OC)c(OC)cc12 [5-063],3 (Herbicidal rate of 40% or more and less than 70%),0 (Herbicidal rate of 5% or less (almost no effect)),0 (Herbicidal rate of 5% or less (almost no effect)),0 (Herbicidal rate of 5% or less (almost no effect)),0 (Herbicidal rate of 5% or less (almost no effect)),1 (Herbicidal rate of 5% or more and less than 20%),2 (Herbicidal rate of 20% or more and less than 40%),0 (Herbicidal rate of 5% or less (almost no effect)),0 (Herbicidal rate of 5% or less (almost no effect)),0 (Herbicidal rate of 5% or less (almost no effect)),0 (Herbicidal rate of 5% or less (almost no effect)),0 (Herbicidal rate of 5% or less (almost no effect)),0 (Herbicidal rate of 5% or less (almost no effect)),
COc1cc2sc(-c3ccc(F)cc3)c(-c3c(O)c(C)nn(C)c3=O)c2cc1-c1ccc(F)cc1 [5-078],,,,,,,,,,,,,,herbicidal effect on barnyard grass (H) ([1]; 270 g/ha): 4 (Herbicidal rate of 70% or more and less than 90%); herbicidal effect on Chinese sprangletop (D) ([2]; 270 g/ha): 4 (Herbicidal rate of 70% or more and less than 90%); herbicidal effect on velvetleaf (M) ([3]; 270 g/ha): 3 (Herbicidal rate of 40% or more and less than 70%); herbicidal effect on lambsquarters (O) ([4]; 270 g/ha): 1 (Herbicidal rate of 5% or more and less than 20%); herbicidal effect on wild oat (I) ([5]; 270 g/ha): 0 (Herbicidal rate of 5% or less (almost no effect)); herbicidal effect on Italian ryegrass (K) ([6]; 270 g/ha): 0 (Herbicidal rate of 5% or less (almost no effect)); herbicidal effect on rice flat sedge (E) ([7]; 270 g/ha): 3 (Herbicidal rate of 40% or more and less than 70%); herbicidal effect on barnyard grass (H) ([8]; 270 g/ha): 4 (Herbicidal rate of 70% or more and less than 90%); herbicidal effect on blackgrass (J) ([9]; 270 g/ha): 0 (Herbicidal rate of 5% or less (almost no effect)); herbicidal effect on southern crabgrass (F) ([10]; 270 g/ha): 4 (Herbicidal rate of 70% or more and less than 90%); herbicidal effect on persian speedwell (R) ([11]; 270 g/ha): 0 (Herbicidal rate of 5% or less (almost no effect)); herbicidal effect on green foxtail (G) ([12]; 270 g/ha): 5 (Herbicidal rate of 90% or more (almost completely withered)); herbicidal effect on windgrass (L) ([13]; 270 g/ha): 0 (Herbicidal rate of 5% or less (almost no effect))
Cc1nn(C)c(=O)c(-c2c(-c3ccc(OC(F)F)cc3)sc3cc(Cl)c(Cl)cc23)c1O [5-086],3 (Herbicidal rate of 40% or more and less than 70%),0 (Herbicidal rate of 5% or less (almost no effect)),3 (Herbicidal rate of 40% or more and less than 70%),5 (Herbicidal rate of 90% or more (almost completely withered)),0 (Herbicidal rate of 5% or less (almost no effect)),0 (Herbicidal rate of 5% or less (almost no effect)),0 (Herbicidal rate of 5% or less (almost no effect)),0 (Herbicidal rate of 5% or less (almost no effect)),5 (Herbicidal rate of 90% or more (almost completely withered)),0 (Herbicidal rate of 5% or less (almost no effect)),5 (Herbicidal rate of 90% or more (almost completely withered)),0 (Herbicidal rate of 5% or less (almost no effect)),5 (Herbicidal rate of 90% or more (almost completely withered)),
Cc1cc2sc(-c3ccc(C#N)cc3)c(-c3c(O)c(C)nn(C)c3=O)c2cc1C [5-100],,,0 (Herbicidal rate of 5% or less (almost no effect)),0 (Herbicidal rate of 5% or less (almost no effect)),0 (Herbicidal rate of 5% or less (almost no effect)),0 (Herbicidal rate of 5% or less (almost no effect)),,0 (Herbicidal rate of 5% or less (almost no effect)),0 (Herbicidal rate of 5% or less (almost no effect)),0 (Herbicidal rate of 5% or less (almost no effect)),2 (Herbicidal rate of 20% or more and less than 40%),0 (Herbicidal rate of 5% or less (almost no effect)),0 (Herbicidal rate of 5% or less (almost no effect)),
COc1ccccc1-c1sc2c(C)cc(C)cc2c1-c1c(O)c(C)nn(C)c1=O [6-002],4 (Herbicidal rate of 70% or more and less than 90%),5 (Herbicidal rate of 90% or more (almost completely withered)),1 (Herbicidal rate of 5% or more and less than 20%),2 (Herbicidal rate of 20% or more and less than 40%),0 (Herbicidal rate of 5% or less (almost no effect)),4 (Herbicidal rate of 70% or more and less than 90%),3 (Herbicidal rate of 40% or more and less than 70%),0 (Herbicidal rate of 5% or less (almost no effect)),4 (Herbicidal rate of 70% or more and less than 90%),0 (Herbicidal rate of 5% or less (almost no effect)),4 (Herbicidal rate of 70% or more and less than 90%),3 (Herbicidal rate of 40% or more and less than 70%),1 (Herbicidal rate of 5% or more and less than 20%),
